# Measurements reported in article PMC12880750, “Mechanistic insights and in vivo HIV suppression by the BRD4-targeting small molecule ZL0580” (PLOS Pathogens, 2026).
# Assays:
# [1] = tested on: BRD4-knockout (KO) J-Lat cells; experiment: RT-qPCR of differentially expressed genes, BRD4-KO J-Lat cells; type: cell-based, human; conditions: same treatments
# Experimental: To validate the RNA-Seq results, RT-qPCR analysis was performed on a subset of differentially expressed genes (DEGs) (Fig 3E). Eight representative DEGs were selected based on statistical significance (adjusted p values) and their involvement in key pathways identified by GSEA, including lipid metabolism/cholesterol biosynthesis (HMGCS1, SQLE, DHCR7) and cytokine signaling (ITK and DUSP8). Relative gene expression levels were normalized to the housekeeping gene GAPDH. […] As an additional control, RT-qPCR was also performed on RNA isolated from BRD4-knockout (KO) J-Lat cells that received the same treatments. The generation and characterization of BRD4-KO J-Lat cells were described previously.
# RT-qPCR was performed as previously reported.
# [2] = tested on: HIV-1 JR-CSF; experiment: HIV suppression in HIV-infected humanized mice (plasma viral load); type: in vivo, CD34+ Hu-NSG mice (Hu-mice)
# Experimental: Next, at week 0, all12 Hu-mice were intravenously inoculated with a single dose of HIV-1 JR-CSF (equivalent to 10 ng HIV p24 antigen per animal) (Fig 6A). Systemic HIV infection was confirmed in 11 out of the 12 mice at weeks 2 and 3 after HIV inoculation, based on the detection of plasma viral RNAs by a single-step RT-qPCR (Fig 6B-6C). Systemic HIV infection in the Hu-mice was also confirmed by ELISA quantification of plasma HIV p24 antigens at weeks 2 and 3 after HIV inoculation (Fig F in S1 Text). The 11 Hu-mice with successful HIV infection were then randomized into four treatment groups at week 3: empty vehicle control (EV) (n = 2), ART (n = 3), ZL0580 (n = 3), and ART + ZL0580 (n = 3). Drug formulations included: ART (Raltegravir 1.2 mg/mouse, Emtricitabine 3.2 mg/mouse, Tenofovir 3.2 mg/mouse), ZL0580 (3.8 mg/mouse), and a combination of both ART + ZL0580 (same concentration of individual compounds). All drugs were formulated in the buffer consisting of 10% DMSO, 10% Solutol HS 15, and 80% HP-β-CD (20%, w/v). The empty vehicle (EV) group received only the formulation buffer. Treatment regimens were initiated at week 3 and administered daily by intraperitoneal injection (Fig 6A). Plasma viral loads were closely monitored during the treatments.
# All humanized mice used in this study weighed approximately 20 grams, and drug dosages were calculated accordingly. The following compounds were administered to mice daily: Raltegravir (Ral) at 60mg/kg (1.2 mg/mouse), Emtricitabine (Emt) at 160mg/kg (3.2 mg/mouse), Tenofovir (Ten) at 160mg/kg (3.2 mg/mouse), and ZL0580 at […] (3.8 mg/mouse). ART drugs were purchased from MedChemExpress. ZL0580 was synthesized in-house as previously reported. All compounds were dissolved in a formulation vehicle composed of 10% DMSO, 10% Solutol HS 15, and 80% hydroxypropyl-β-cyclodextrin (HP-β-CD, 20% w/v). Compounds were administered via intraperitoneal injection daily.
# Mice were 16-week-old at the initiation of the experiments. All mice received human CD34 + stem cells of a single donor and human immune cell reconstitution was confirmed for all mice. A total of 12 Hu-mice were initially included in the study with each tagged and assigned with a unique ID. At week 0, all Hu-mice were intravenously (IV) infected with HIV-1 JR-CSF at a single dose of 10ng HIV p24 equivalent virus per animal. Blood/plasma viral loads were monitored and quantified weekly by a single-step RT-qPCR until systemic HIV infection was established. […] At week 3, the remaining 11 Hu-mice were randomized into four groups for subsequent treatments: Empty Vehicle (EV) (n = 2), ART (n = 3), ZL0580 (n = 3), and ART + ZL0580 (n = 3). The control mice received a mixture of DMSO, Solutol HS 15, and hydroxypropyl-β-cyclodextrin (HP-β-CD, 20% w/v), which was considered the empty vehicle control (EV). ART and ZL0580 compounds were administered to mice via intraperitoneal injection daily for four weeks (from week 3 to week 7). […] Plasma samples were collected from mice either weekly or biweekly for quantification of viral loads (RNA copies). Blood cells were also collected at weeks 7 and 13 for quantification of cell-associated HIV DNA in blood. Mouse weights were monitored after treatment.
# Viral RNA was isolated from plasma samples using the QIAamp Viral RNA Mini Kit (Qiagen) according to the manufacturer’s instructions. Quantification of viral RNA was performed using the PrimeTime One-Step RT-qPCR Master Mix (IDT) on a CFX Connect Real-Time PCR System (Bio-Rad). […]
compound,measurement,setting,value
O=C(Nc1ccc(C(F)(F)F)cc1)Nc1ccc(S(=O)(=O)N2CCC[C@H]2C(=O)Nc2ccccc2)cc1 [ZL0580],Contrasting regulatory effects on representative DEGs in the absence of BRD4,[1],largely abolished
same,Delay of viral rebound following TI compared to ART alone,[2]; ZL0580 monotherapy,~ 2 weeks
same,Plasma viral loads at week 5,"[2]; after two weeks of daily i.p. treatment, ZL0580 3.8 mg/mouse, ART Raltegravir 1.2, Emtricitabine 3.2, Tenofovir 3.2 mg/mouse",nearly undetectable levels
same,Plasma viral copies at week 7 (mean ± SEM),"[2]; end of 4 weeks daily i.p. treatment, n = 3 per group",105 ± 28 HIV RNA copies/ml
same,"Area under the curve (AUC) of viral loads after TI, weeks 7 to 15, compared to EV control",[2]; one-way ANOVA,significantly suppressed viral rebounds
same,Plasma mean viral copies at week 9,[2]; two weeks post treatment interruption (TI),undetectable
